Numbered stars: 1 amine (or outer) side, 2 acyl side, 3 side chain; on linkers, the order of the positions; unused ones are H or OH. Peptide text beside a SMILES is read from it. * marks the point of attachment. C18 diacid = O=C(O)CCCCCCCCCCCCCCCCC(=O)*; γGlu = O=C(O)[C@H](CCC(=O)[*:2])N[*:1]
Assay: Assay (IV) determination of solubility
Format: physicochemical
Method: Assay (IV)—Determination of Solubility
The mimylin peptide was dissolved in water at ˜500 nmol/ml and mixed 1:1 with a series of buffers (100 mM glycylglycine pH 3.0, 100 mM glycylglycine pH 4.0, 100 mM glycylglycine pH 5.0, 100 mM bistrispropane pH 6.0, 100 mM bistrispropane pH 6.5, 100 mM bistrispropane pH 7.0, 100 mM bistrispropane pH 7.5, 100 mM bistrispropane pH 8.0).

Measured: Solubility

CC(C)C[C@H](NC(=O)[C@H](CCC(=O)O)NC(=O)[C@H](Cc1cnc[nH]1)NC(=O)[C@H](CC(C)C)NC(=O)[C@H](CCC(=O)O)NC(=O)[C@H](C)NC(=O)[C@H](CO)NC(=O)[C@H](CC(C)C)NC(=O)[C@H](CCCNC(=N)N)NC(=O)CNC(=O)[C@H](CC(C)C)NC(=O)[C@@H](NC(=O)[C@H](C)NC(=O)[C@@H](NC(=O)[C@H](CO)NC(=O)[C@H](CC(C)C)NC(=O)[C@@H]1CCCN1C(=O)[C@@H]1CCCN1C(=O)[C@H](C)NC(=O)[C@H](CCC(=O)O)NC(=O)CCCCCCCCCCCCCCCCC(=O)O)[C@@H](C)O)C(C)C)C(=O)N[C@@H](C)C(=O)N[C@H](C(=O)N[C@@H](CC(C)C)C(=O)N1CCC[C@H]1C(=O)N[C@@H](CCCNC(=N)N)C(=O)N[C@H](C(=O)N[C@@H](CCC(=O)O)C(=O)N[C@H](C(=O)NCC(=O)N1CCC[C@H]1C(=O)N[C@@H](CCC(=O)O)C(=O)N[C@@H](CO)C(=O)N1CCC[C@H]1C(N)=O)[C@@H](C)O)[C@@H](C)O)[C@@H](C)O [compound 38, [N-terminal(C18 diacid), 3P, 4P, 9V]mimylin] ({C18 diacid}-EAPPLSTAVLGRLSAELHELATLPRTETGPESP-NH2)
≧200 μM: pH 3.0 | pH 4.0 | pH 5.0 | pH 6.0 | pH 6.5 | pH 7.0 | pH 7.5 | pH 8.0

CC(C)C[C@H](NC(=O)[C@H](C)NC(=O)[C@H](C)NC(=O)[C@@H](NC(=O)[C@H](CO)NC(=O)[C@H](CC(C)C)NC(=O)[C@H](CCC(=O)O)NC(=O)[C@H](CO)NC(=O)[C@H](C)NC(=O)CC[C@H](NC(=O)CCCCCCCCCCCCCCCCC(=O)O)C(=O)O)[C@@H](C)O)C(=O)NCC(=O)N[C@@H](CCCNC(=N)N)C(=O)N[C@@H](CC(C)C)C(=O)N[C@@H](CO)C(=O)N[C@@H](C)C(=O)N[C@@H](CCC(=O)O)C(=O)N[C@@H](CC(C)C)C(=O)N[C@@H](Cc1cnc[nH]1)C(=O)N[C@@H](CCC(=O)O)C(=O)N[C@@H](CC(C)C)C(=O)N[C@@H](C)C(=O)N[C@H](C(=O)N[C@@H](CC(C)C)C(=O)N1CCC[C@H]1C(=O)N[C@@H](CCCNC(=N)N)C(=O)N[C@H](C(=O)N[C@@H](CCC(=O)O)C(=O)N[C@H](C(=O)NCC(=O)N[C@@H](CO)C(=O)NCC(=O)N1CCC[C@H]1C(=O)N1CCC[C@H]1C(N)=O)[C@@H](C)O)[C@@H](C)O)[C@@H](C)O [compound 75, [N-terminal(C18 diacid-gGlu), des1, 30S, 31G, 32P]mimylin] ({C18 diacid-γGlu}-ASELSTAALGRLSAELHELATLPRTETGSGPP-NH2)
≧200 μM: pH 3.0 | pH 4.0 | pH 5.0 | pH 6.0 | pH 6.5 | pH 7.0 | pH 7.5 | pH 8.0

From patent US9593149B2, “Amylin and calcitonin receptor agonist” (Novo Nordisk A/S, priority 2014, dated 2017)
